Experimental data reported in publication PMC8587043, “An Investigation into the Interaction between Double Hydroxide-Based Antioxidant Benzophenone Derivatives and Cyclooxygenase 2” (Molecules, 2021).

Key:
EA.hy926 cells = assay: Protective effect against H2O2-induced oxidative damage, MTT assay; assay type: cell-based, human; conditions: for EC50: protection against H2O2-induced damage (400 µmol·L^−1, 4 h), n = 3, mean ± SD
Experimental: Hydrogen peroxide (H2O2), a small molecule and functions as oxidative stress and a second messenger which contributes to cell damage or death, could directly induce inflammation in several cell lines. H2O2-induced cell damage is a commonly used model for antioxidant activity evaluation. […] Thus, the concentration of 400 µmol·L^−1 at 4 h was chosen as the model.
Compound SC2 stock solutions were prepared in DMSO. The stock solutions were diluted with FBS free DMEM to different target concentrations (DMSO concentrations ≤ 0.5% v:v). Cells (100 μL, 2 × 10^5 cells∙mL^−1) were seeded on 96-well plates and cultured for 24 h. The medium was then replaced with fresh media containing H2O2 with different concentrations (0, 100, 200, 300, 400, 500, and 600 μmol·L^−1 in FBS free DMEM) and compound SC2 (50, 40, 30, 20, 10 µmol·L^−1), which were transferred to the incubator and cultured for additional time (2, 4, and 6 h). The medium was then replaced with 100 μL of FBS free DMEM and MTT (10 μL, 5 mg·mL^−1 in PBS) and after 4 h the medium was replaced with DMSO (100 μL). A microplate reader (SpectraMaxPlus384, Molecular Devices, United States) was used to record the absorbance at 490 nm for each well of the plates. Cell viability was measured via MTT assay. Survival rate (%) = (Asample group/Acontrol group) × 100%.
Cells (100 μL, 2 × 10^5 cells·mL^−1) were seeded in 96-well plates for 24 h. Cells were treated with different groups and cell viability was measured via MTT assay. The protection rates to oxidative damage were determined and EC50 values were calculated. The protection rates to cells were calculated using the following formula: Protection rate (%) = (Apretreatment group − Amodel group)/(Acontrol group − Amodel group) × 100%.

COX2 = target: T1, COX2 (Homo sapiens, UniProt P35354); assay: Three-dimensional fluorescence spectroscopy of COX2-compound systems; assay type: binding; conditions: for Peak Position λex/λem, peak 2 / Relative Intensity (I), peak 2 / Relative Intensity (I), peak 1: compound 4.50 × 10^−5 mol∙L^−1, 298 K; for Relative Intensity (I), peak 2: COX2 alone 775; for Relative Intensity (I), peak 1: COX2 alone 874
T1 construct: purchased Sino Biological Co. (Beijing, China)
T1 sequence (P35354 18-604): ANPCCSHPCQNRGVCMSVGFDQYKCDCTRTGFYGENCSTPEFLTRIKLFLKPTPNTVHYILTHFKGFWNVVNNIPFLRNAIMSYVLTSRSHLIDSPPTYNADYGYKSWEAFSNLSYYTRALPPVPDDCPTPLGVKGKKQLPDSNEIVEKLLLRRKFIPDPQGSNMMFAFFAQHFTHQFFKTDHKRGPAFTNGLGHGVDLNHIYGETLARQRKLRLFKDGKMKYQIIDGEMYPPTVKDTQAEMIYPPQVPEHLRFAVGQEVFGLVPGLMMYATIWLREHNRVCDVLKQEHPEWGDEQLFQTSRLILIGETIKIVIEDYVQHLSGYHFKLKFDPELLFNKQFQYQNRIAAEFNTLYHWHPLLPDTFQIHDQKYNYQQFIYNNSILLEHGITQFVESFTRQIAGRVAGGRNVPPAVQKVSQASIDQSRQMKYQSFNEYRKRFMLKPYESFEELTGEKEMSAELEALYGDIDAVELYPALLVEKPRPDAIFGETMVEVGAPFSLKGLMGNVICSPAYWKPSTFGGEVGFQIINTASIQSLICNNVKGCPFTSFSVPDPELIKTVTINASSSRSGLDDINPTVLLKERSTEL
Excerpt: Three-dimensional fluorescence spectroscopy can reflect the microenvironment of related fluorophores. It was employed to study the structural changes of COX2 before and after binding. Peak 1 and peak 2 were maintained at 272/338 nm and 230/337 nm, respectively. […] Peak 2 reflected the fluorescence information of the polypeptide backbone structure of COX2, involving pi-to-pi* transition related to the secondary structure changes. According to Figure 7 and Table 3, both peak 1 and peak 2 of COX2 had been quenched. […] Furthermore, the fluorescence intensity of peak 1 was higher than that of peak 2 in the spectra for COX2-SC2 complex (Table 3). It implies that the fluorescence quenching of COX2 by compound SC2 on peak 2 was more evident than on peak 1. We could draw a conclusion that the interaction of compound SC2 with COX2 induced the slight opening of the polypeptides of protein, thereafter changing the conformation of COX2. […] Comparison of Figure 7a with Figure 7c also implied that there was a blue shift of 5.5 nm for peak 1, and 4 nm for peak 2. […] These changes induced the increase in hydrophobicity of COX2, decrease in collisions between COX2 molecules and water, and increase in the quantum yield of COX2. […] Taken together, these combined results implicate the ability of compounds DB2, SC2 and YB2 to bind to COX2.
The fluorescence intensity of the system was measured with a 1.0 cm quartz cell. […] DB2, SC2 or YB2 stock solutions were prepared in singleton at 1.5 × 10^−3 mol∙L^−1 in PBS containing 0.1% DMSO. 2.0 mL COX2 solution was separately titrated by continuing additions of 10 μL compounds DB2, SC2 or YB2 solution). After incubation at 298 K or 310 K, fluorescence quenching spectra were recorded in the region 325-450 nm at a scan rate of 1200 nm∙min^−1. The local environment of Tyr and Trp residues was quite sensitive at 280 nm, so the excitation wavelength was set at this wavelength. Typically, 280 nm is also used to measure the changes in protein tertiary structure. The slit widths of emission and excitation were both fixed at 10 nm. To observe spectra behaviors of Tyr and Trp groups of COX2, the wavelength interval between the excitation and emission wavelengths (Δλ) was set as 15 nm and 60 nm, respectively. Three-dimensional fluorescence spectroscopy was obtained for an excitation range of 200–300 nm and an emission range of 325–400 nm. Appropriate buffer solutions, determined under the same operation conditions, were used as blanks. Each spectrum was recorded three times.

| blue shift of peak 1 (COX2; COX2-compound vs COX2 alone) [nm] | blue shift of peak 2 (COX2; COX2-compound vs COX2 alone) [nm] | Peak Position λex/λem, peak 2 (COX2) | Relative Intensity (I), peak 2 (COX2) | Relative Intensity (I), peak 1 (COX2) | Compound | protection from H2O2 induced cell damage (EA.hy926 cells; 5 µmol·L^−1 compound, four pre-chosen H2O2 treatments) | EC50 (EA.hy926 cells; Homo sapiens, EA.hy 926, 4 h) [nM] | EC50 (EA.hy926 cells) [nM] | protection rate compared with positive controls (fenofibrate and quereetin) (EA.hy926 cells; statistical comparison) |
| --- | --- | --- | --- | --- | --- | --- | --- | --- | --- |
| 5.5 | 4 | 236/333 | 82.9 | 395 | CC(C)(C)c1ccc(C(=O)c2c(Cl)cc(O)c(O)c2O)cc1 [SC2] | protects the cells from H2O2 induced cell damage | 6.25 ± 0.415 | 6.25 ± 0.415 |  |
|  |  | 236/337 | 153 | 665 | CCCCc1ccc(C(=O)c2c(Br)cc(O)c(O)c2O)cc1 [DB2] |  | 1360 ± 463 |  |  |
|  |  | 236/336 | 103 | 472 | CC(C)Cc1ccc(C(=O)c2c(Br)cc(O)c(O)c2O)cc1 [YB2] |  | 418 ± 24.6 |  | no significant difference |
